Source: patent publication US8410109B2, “Pharmaceutical compositions for the prevention and treatment of complex diseases and their delivery by insertable medical devices” (Resverlogix Corp., priority 2005, dated 2013)
Where a name gives a salt, the structure may show the parent alone.

What was measured:
VCAM-1 = VCAM-1 ELISA on lysates of TNF-α stimulated HUVECs; format: cell-based; conditions: Homo sapiens, HUVEC, 50 uM, approx. 16 hours
Description: (§1) Compounds were dissolved in DMSO, aliquoted, and stored at −20° C. Cultured human vascular endothelial cells (HUVECs) were seeded in 96-well plates in complete EGM-2 media (˜100 μL/well); cells were plated at ˜2-3×10^5/mL, and were from passage 8 to 12. Cells were incubated overnight. On the following day cells are stimulated with TNF-α (˜1 ng/mL) in the presence or absence of compounds dissolved in DMSO. Triplicate wells were used for each test. To establish a dose curve and an IC50, multiple concentrations in 2- to 5-fold increments were used. Cells were exposed to TNF-α and compounds for approximately 16 hours. The next day, cells were visually examined via light microscopy to score for visual signs of toxicity. Cell culture media was analyzed using an MCP-1 ELISA. Cells were refed (−100 μL/well) with 20% CellTiter 96. Aqueous One Cell Proliferation Solution (Promega), 80% EGM-2 medium. Media optical density (at 490 nm) was determined after 1 hour. Plates were aspirated and cell lysates were prepared and these lysates were tested using a VCAM-1 ELISA.
(§2) In Table 2, a positive result (+) was defined as at least 50% inhibition of the protein levels MCP-1 or VCAM-1, as determined by the ELISA.

[1] = tested on: Human coronary artery smooth muscle cells (CASMCs); assay: Smooth muscle cell proliferation protocol; format: cell-based; conditions: 50 uM, 72 hours, read-out: % Inhibition of SMC Proliferation
Description: Compounds were dissolved in DMSO, aliquoted, and stored at −20° C. Human coronary artery smooth muscle cells (CASMCs) were plated in 96-well plates and were grown in SmBM-2 media. After 1-2 hours, media was aspirated and replaced with serum-free ME/F12 media, except the controls. Cells were incubated for a further 48 hours. Compounds were diluted in DME/F12 containing 10% FBS. Media was aspirated from the plates and compounds in DME/F12 containing 10% FBS. Six wells were used per condition and duplicate plates were used. Cells were incubated for a further 72 hours. Media was aspirated from one set of plates; those cells were refed (˜100 μL/well) with 20% CellTiter 96 Aqueous One Cell Proliferation Solution (Promega), 80% EGM-2 medium. Media optical density (at 490 nm) was determined after 3-4 hours. In the second set of plates, serum-free DME/F12 media (20 μL) was added to each well. Part of the supernatant (50 μL) was removed and placed in an ELISA plate and was stored temporarily at 4° C. The remaining media and cells in the second set of plates were freeze-thawed for four cycles. The lysates and supernatants were mixed and centrifuged. Part of the supernatant (50 μL) was removed and placed in an ELISA plate. The Promega Cytotox assay was performed on the ELISA plates. The ratio of supernatant OD to supernatant+cell lysate OD was determined.
In Table 2, a positive result (+) was defined as at least 40% inhibition of the proliferation of SMC, as determined by the assay.

MCP-1 = MCP-1 ELISA on culture media of TNF-α stimulated HUVECs; format: cell-based; conditions: Homo sapiens, HUVEC, 50 uM, approx. 16 hours
Description: as §1, §2

SMILES	inhibition at 50 µM (VCAM-1) [%]	melting point [°C]	inhibition at 50 µM [1] [%]	inhibition at 50 µM (MCP-1) [%]
COc1cc(-c2cc(=O)c3cccnc3o2)ccc1O [EXAMPLE 8, 2-(4-Hydroxy-3-methoxyphenyl)-4H-pyrano[2,3-b]pyridine-4-one]	≥ 50	253 to 255	< 40	< 50
O=c1cc(-c2ccc(O)c(Cl)c2)oc2ncccc12 [EXAMPLE 7, 2-(3-Chloro-4-hydroxyphenyl)-4H-pyrano[2,3-b]pyridine-4-one]	≥ 50	259 to 262	≥ 40	≥ 50
COc1ccc(-c2cc(=O)c3cccnc3o2)cc1 [EXAMPLE 9, 2-(4-Methoxyphenyl)-4H-pyrano[2,3-b]pyridine-4-one]	< 50	269 to 270	≥ 40	< 50
O=c1cc(-c2ccc(F)cc2)oc2ncc(CN3CCCC3)cc12 (as salt: hydrochloride) [EXAMPLE 37, 2-(4-fluorophenyl)-6-(pyrrolidin-1-ylmethyl)-4H-pyrano[2,3-b]pyridin-4-one hydrochloride]		265 to 268		
Cn1c(-c2ccc(O)c(F)c2)cc2ncccc2c1=O [EXAMPLE 16, 7-(3-Fluoro-4-hydroxyphenyl)-6-methyl-1,6-naphthyridin-5(6H)-one]	< 50	182 to 184	< 40	< 50
Cc1cc(-c2cc(=O)c3cccnc3o2)cc(C)c1O [EXAMPLE 24, 2-(4-hydroxy-3,5-dimethylphenyl)-4H-pyrano[2,3-b]pyridin-4-one]	≥ 50	295 to 297	≥ 40	≥ 50
Oc1ccc(-c2cc3ccccc3cn2)cc1 [EXAMPLE 15, 4-Isoquinolin-3-yl-phenol]	≥ 50	218 to 219	< 40	< 50
O=c1[nH]c2ccc(-c3cc(=O)c4ccccc4o3)cc2o1 [EXAMPLE 36, 6-(4-oxo-4H-chromen-2-yl)benzo[d]oxazol-2(3H)-one]	≥ 50	347.6 to 348.2	≥ 40	< 50
COc1cc(OC)c2c(=O)[nH]c(-c3cc(C)c(OCC(C)(C)O)c(C)c3)cc2c1 [EXAMPLE 42, 3-(4-(2-hydroxy-2-methylpropoxy)-3,5-dimethylphenyl)-6,8-dimethoxyisoquinolin-1(2H)-one]	≥ 50	252 to 254	≥ 40	< 50
O=c1cc(-c2ccc(O)c(F)c2)oc2ncccc12 [EXAMPLE 4, 2-(3-Fluoro-4-hydroxyphenyl)pyrano[2,3-b]pyridine-4-one]	≥ 50	267 to 268	< 40	< 50
O=c1cc(-c2ccc(O)c(-c3cccs3)c2)oc2ncccc12 [EXAMPLE 28, 2-(4-hydroxy-3-(thiophen-2-yl)phenyl)-4H-pyrano[2,3-b]pyridin-one]	≥ 50	273.5 to 275	< 40	< 50
O=c1cc(-c2ccc(O)cc2)oc2cnccc12 [EXAMPLE 3, 2-(4-Hydroxyphenyl)-pyrano[2,3-c]pyridin-one]	< 50	294 to 296	≥ 40	< 50
Nc1ccc(-c2cc(=O)c3cccnc3o2)cc1 (as salt: hydrochloride) [EXAMPLE 38, 2-(4-aminophenyl)-4H-pyrano[2,3-b]pyridin-4-one hydrochloride]		254 to 255		
CNc1nc(-c2cc(C)c(O)c(C)c2)cc2ccc(CN3CCN(C)CC3)cc12 (as salt: hydrochloride) [EXAMPLE 43, 2,6-dimethyl-4-(1-(methylamino)-7-((4-methylpiperazin-1-yl)methyl)isoquinolin-3-yl)phenol trihydrochloride]		264 to 266		
Cc1cc(-c2cc(=O)c3cccnc3o2)cc(C)c1OCC(=O)O [EXAMPLE 29, 2-(2,6-dimethyl-4-(4-oxo-4H-pyrano[2,3-b]pyridin-2-yl)phenoxy)acetic Acid]	< 50	280	≥ 40	< 50
CN(C)Cc1ccc2c(=O)cc(-c3ccc(O)cc3)oc2n1 (as salt: hydrochloride) [EXAMPLE 26, 7-((dimethylamino)methyl-2-(4-hydroxyphenyl)-4H-pyrano[2,3-b]pyridin-4-one dihydrochloride]		205		
O=c1cc(-c2ccc(OCCO)cc2)oc2ncccc12 [EXAMPLE 10, 2-(4-(2-Hydroxyethoxy)phenyl)-4H-pyrano[2,3-b]pyridine-4-one]	< 50	157 to 159	≥ 40	< 50
O=c1cc(-c2ccc(O)nc2)oc2ccccc12 [EXAMPLE 13, 2-(6-Hydroxypyridin-3-yl)-chromen-4-one]	≥ 50	296 to 297	≥ 40	< 50
O=c1cc(-c2ccc(O)cc2)oc2ccncc12 [EXAMPLE 6, 2-(4-Hydroxyphenyl)-4H-pyrano[3,2-c]pyridin-4-one]	≥ 50	306 to 308	≥ 40	< 50
COc1cccc2c(=O)[nH]c(-c3ccc(O)c(F)c3)cc12 [EXAMPLE 18, 3-(3-Fluoro-4-hydroxyphenyl)-5-methoxyisoquinolin-1(2H)-one]	≥ 50	289 to 291	≥ 40	≥ 50
CN(C)CCOc1ccc(-c2cc(=O)c3cccnc3o2)cc1 (as salt: hydrochloride) [EXAMPLE 27, 2-(4-(2-(dimethylamino)ethoxy)phenyl)-4H-pyrano[2,3-b]pyridin-4-one dihydrochloride]		236 to 238		
O=c1cc(-c2ccc3nccnc3c2)oc2ncccc12 [EXAMPLE 44, 2-(quinoxalin-6-yl)-4H-pyrano[2,3-b]pyridin-4-one]	≥ 50	272.3 to 274.8	≥ 40	< 50
Cc1cc(-c2cc(=O)c3cc(CN4CCCC4)cnc3o2)cc(C)c1O (as salt: hydrochloride) [EXAMPLE 33, 2-(4-hydroxy-3,5-dimethylphenyl)-6-(pyrrolidin-1-ylmethyl)-4H-pyrano[2,3-b]pyridin-4-one dihydrochloride]		337 to 338		
Cc1cc(-c2cc3ncccc3c(=O)[nH]2)cc(C)c1O (as salt: hydrochloride) [EXAMPLE 40, 7-(4-hydroxy-3,5-dimethylphenyl)-1,6-naphthyridin-5(6H)-one hydrochloride]		> 350		
COc1cc(O)nc2cc(-c3cc(C)c(O)c(C)c3)[nH]c(=O)c12 (as salt: hydrochloride) [EXAMPLE 41, 2-hydroxy-7-(4-hydroxy-3,5-dimethylphenyl)-4-methoxy-1,6-naphthyridin-5(6H)-one dihydrochloride]		> 330		
COc1cc(OC)c2c(=O)cc(-c3ccncc3)oc2c1 (as salt: hydrochloride) [EXAMPLE 34, 5,7-dimethoxy-2-(pyridin-4-yl)-4H-chromen-4-one hydrochloride]		234 to 235		
O=c1cc(-c2ccncc2)oc2ncccc12 (as salt: hydrochloride) [EXAMPLE 30, 2-(pyridin-4-yl)-4H-pyrano[2,3-b]pyridin-4-one hydrochloride]		248 to 250		
O=c1cc(-c2ccccc2)oc2ncc(CN3CCCC3)cc12 (as salt: hydrochloride) [EXAMPLE 35, 2-phenyl-6-(pyrrolidin-1-ylmethyl)-4H-pyrano[2,3-b]pyridin-4-one hydrochloride]		294 to 296		
